Patent US6908930B2, “4-substituted 7-AZA-indolin-2-ones and their use as protein kinase inhibitors” (Sugen, Inc., priority 1999, dated 2005)
pIC50: −log10 of the molar value.

Experiments:
PDGFR = target: T1, PDGFR (Homo sapiens, UniProt P09619); experiment: Assay for modulation of PDGFR activity (ELISA); format: biochemical; conditions: read-out: bio PDGFR IC50
T1 construct: expressed in transfected cells; host or cells: NIH3T3
Experimental: Using the following reagents, supplies, and methods, the ability of the compounds of the invention to modulate the in vitro activity of the PDGFR can be readily determined in an enzyme-linked immunosorbent assay (ELISA).
Monoclonal anti-PDGFR antibody (28D4C10) is stored at −20° C. in 50 mL tubes prior to use.
Lysates from PDGFR-β expressing NIH3T3 cells are obtained and stored at −80° C. in 1 mL aliquots. PDGFR-β expression in eukaryotic cells is well known in the art. Lysates are prepared by the following method. Place carrier dishes in ice trays, and after cooling, remove the media and replace with ice cold PBS. Remove the PBS and repeat. […] Take up lysate with a pipettor and add to a 30 mL centrifuge tube on ice. Vortex the tubes for 30-60 seconds and then centrifuge for 10 minutes at 7000 rpm in a J-20 rotor which has been precooled to below 0° C. Recover the supernatants and combine them in a 250 mL tube and place on ice. Perform protein determination to measure the total quantity of protein per mL of solution. Aliquot the lysate into 1 mL fractions and store at −80° C.
Coat Corning 96 well ELISA plates with 0.5 μg per well 28D4C10 antibody in a volume of 100 μl PBS overnight, at 4° C. and remove unbound antibody, 28D4C10, from wells by inverting plate to remove liquid. Wash 1× with distilled H2O by filling wells. Pat the plate on a paper towel to remove excess liquid.
Add 150 μL of Blocking Buffer to each well. Incubate for 30 minutes at room temperature, with shaking and wash plate 3× with deionized water, then once with TBST. Pat plate on a paper towel to remove excess liquid and bubbles
Dilute lysate in PBS (10 mg lysate/100 μL PBS). Add 100 μL of diluted lysate to each well. Shake at room temperature for 60 min. Wash plate 3× with deionized water, then once with TBST. Pat plate on a paper towel to remove excess liquid and bubbles.
Add 80 μL Kinase Buffer to ELISA plate containing captured PDGFR.
Dilute drugs/extracts 1:10 (unless specified otherwise) in TBS+10% DMSO in 96-well polypropylene plates. (i.e., 10 μL compound+90 μL (TBS+10% DMSO)). Add 10 μL diluted drugs/extracts to ELISA plate. […] Incubate for 30 minutes while shaking at room temperature.
After 30 minutes stop reaction with addition of 10 μL of 200 mM EDTA pH 8.0 for 20 mM final in well. Wash 4× with deionized water, twice with TBST.
Incubate 30-45 minutes at room temperature, with shaking. Wash plate 3× with deionized water, then once with TBST. Pat plate on a paper towel to remove excess liquid and bubbles.
Incubate 30 minutes at room temperature with shaking. Wash plate 3× with deionized water, then once with TBST. Pat plate on a paper towel to remove excess liquid and bubbles.
Add 100 μL of ABTS/H2O2 solution to each well. Incubate 10 to 30 minutes while shaking. Remove any bubbles. If necessary stop reaction with the addition of 100 μL of 0.2M HCl per well
Read assay on Dynatech MR7000 ELISA reader.

HER-2 = target: T2, HER-2 (Homo sapiens, UniProt P04626); experiment: Assay for modulation of HER-2 activity in whole cells (ELISA); format: cell-based; conditions: EGFR/HER-2chimera/#T3-C7 cell lines, EGF stimulated; read-out: HER-2 kinase IC50
T2 construct: expressed in mouse 3T3 (clone C7) cells; P00533 (Epidermal growth factor receptor)
Experimental: Using the following reagents, supplies, and method, the ability of compounds of the invention to affect the activity of HER-2 in whole cells in an ELISA format can be assigned.
EGFR/HER-2chimera/#T3-C7 cell lines are used for this assay. Choose dishes having 80-90% confluence for the experiment. Collect cells by trypsinization and centrifuge at 1000 rpm at room temperature for 5 minutes.
Resuspend cells in starve medium and count with trypan blue. Only viability above 90% is acceptable. Seed cells in starve medium at a density of 2,500 cells per well, 90 μL per well, in a 96 well microtiter plate. Incubate seeded cells in 5% CO2 at 37° C. overnight. Start the assay two days after seeding.
Samples are diluted directly into a polypropylene plate containing starve-DMEM (non-sterile is okay). This dilution will be 1:10 or greater, depending on the samples being screened. The same amount of DMSO is put into the control wells. […] are then transferred to the cell plate at a 1:10 dilution (10 μL of sample and media into 90 μL of starve media). The final DMSO concentration will be 1% or lower.
Ten samples are put into wells 2-11 of row A of the NUNC 96 well polypropylene plate. These wells contain straight starve-DMEM. For a 1:10 dilution, one would put 10 μL of drug into 90 μL of media. The rest of the wells (including the controls) will have a DMSO/media mixture. The percentage of DMSO in this mixture is determined by the first dilution factor, in this case 1:10. The DMSO concentration is therefore 10%. An equal amount of drug and media from row A is put into row B, containing DMSO and media. The same amount is then taken out and put into row C. This is repeated for all rows. These are 1:2 dilutions. All wells are then transferred to the cell plate at a 1:10 dilution (10 μL of sample and media into 90 μL of starve-DMEM. The final DMSO concentration will be 1% or lower. […]
After a 2 hour incubation with the drug, add prepared EGF ligand to cells at 50 μL per well, for a final concentration of 50 nM. Positive control wells (8) receive the same amount of EGF. […] Incubate at 37° C. for 10 minutes.
Remove drug, EGF, and DMEM by dumping in sink. Wash cells once with PBS.
Transfer HNTG* to cells, 100 μL per well. Place on ice for 5 minutes. Meanwhile, remove blocking buffer from ELISA plate and wash as described above. With a pipette tip securely fitted to a micropipettor, scrape cells from plate and homogenize cell material by repeatedly aspirating and dispensing the HNTG* lysis buffer. Transfer lysate to a coated, blocked, washed ELISA plate. Alternatively, one may use a Costar transfer cartridge to transfer lysate to the ELISA plate. Incubate, shaking, at room temperature for one hour.
Remove lysate by dumping in sink, then wash as described earlier. Transfer freshly diluted anti-phosphotyrosine (anti-Ptyr) antibody (1:3000 in TEST) to ELISA plate, 100 μL per well. Incubate, shaking, at room temperature, for 30 minutes.
Remove anti-Ptyr antibody by dumping in sink, then wash as described earlier. Transfer freshly diluted BIOSOURCE antibody to ELISA plate, (1:8000 in TEST), 100 μL per well. Incubate, shaking, at room temperature for 30 minutes.
Remove BIOSOURCE antibody by dumping in sink, then wash as described earlier. Transfer freshly prepared ABTS/H2O2 solution to ELISA plate, […]. Incubate 5-10 minutes while shaking. Remove any bubbles and if necessary, stop reaction with the addition of 100 μL of 0.2 M HCl per well.
Read assay on Dynatech MR7000 ELISA reader. Test Filter: […]; Reference Filter: […]. A preferred template for the placement of controls in this experiment is provided below: […]

T2 sequence (P04626 720-987 limits assumed): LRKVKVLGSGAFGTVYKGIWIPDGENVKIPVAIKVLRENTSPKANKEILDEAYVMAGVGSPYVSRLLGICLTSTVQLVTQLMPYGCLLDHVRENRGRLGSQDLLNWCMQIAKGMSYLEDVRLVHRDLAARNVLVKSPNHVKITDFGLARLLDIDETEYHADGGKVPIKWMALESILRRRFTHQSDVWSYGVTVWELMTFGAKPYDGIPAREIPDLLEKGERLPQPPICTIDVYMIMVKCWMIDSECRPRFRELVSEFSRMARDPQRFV
T1 sequence (P09619 33-1106, species assumed): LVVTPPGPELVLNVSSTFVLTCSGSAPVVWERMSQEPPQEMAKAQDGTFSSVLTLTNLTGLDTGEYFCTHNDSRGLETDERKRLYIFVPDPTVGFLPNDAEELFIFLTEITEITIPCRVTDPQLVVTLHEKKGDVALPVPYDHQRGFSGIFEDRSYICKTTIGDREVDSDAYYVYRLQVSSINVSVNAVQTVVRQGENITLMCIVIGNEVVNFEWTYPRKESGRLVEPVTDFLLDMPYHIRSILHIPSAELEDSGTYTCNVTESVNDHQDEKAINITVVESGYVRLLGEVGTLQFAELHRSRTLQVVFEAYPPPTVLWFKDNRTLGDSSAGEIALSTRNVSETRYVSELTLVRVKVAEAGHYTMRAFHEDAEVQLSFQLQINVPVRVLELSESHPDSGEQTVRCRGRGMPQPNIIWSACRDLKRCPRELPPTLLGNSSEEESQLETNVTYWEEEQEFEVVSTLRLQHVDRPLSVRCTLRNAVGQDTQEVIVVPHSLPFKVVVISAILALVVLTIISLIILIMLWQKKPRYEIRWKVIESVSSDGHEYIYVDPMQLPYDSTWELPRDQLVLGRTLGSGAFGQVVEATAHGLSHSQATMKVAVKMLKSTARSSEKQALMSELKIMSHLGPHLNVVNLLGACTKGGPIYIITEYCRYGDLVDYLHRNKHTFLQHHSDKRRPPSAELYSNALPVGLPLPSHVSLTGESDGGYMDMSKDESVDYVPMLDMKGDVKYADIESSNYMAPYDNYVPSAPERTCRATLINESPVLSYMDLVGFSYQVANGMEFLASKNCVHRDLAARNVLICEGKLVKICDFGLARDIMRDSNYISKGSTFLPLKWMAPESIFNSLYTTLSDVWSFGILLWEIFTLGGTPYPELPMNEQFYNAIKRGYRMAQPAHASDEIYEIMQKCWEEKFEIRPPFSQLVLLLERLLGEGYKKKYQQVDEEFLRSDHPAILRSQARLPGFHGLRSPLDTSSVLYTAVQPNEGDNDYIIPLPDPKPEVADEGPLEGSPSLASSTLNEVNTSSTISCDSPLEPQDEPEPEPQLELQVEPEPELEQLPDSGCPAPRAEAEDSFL

Row | Compound | pIC50 (PDGFR) | pIC50 (HER-2)
1 | Cc1cc(C=C2C(=O)Nc3ncnc(Nc4ccc(F)c(Cl)c4)c32)[nH]c1C(=O)N1CCOCC1 [Formula 37] | < 4.70 | 5.97
2 | CC(C)c1cc(CCC(=O)O)c(/C=C2\C(=O)Nc3ncnc(Nc4ccc(F)c(Cl)c4)c32)[nH]1 [Formula 27] | < 4.70 | 6.19
3 | C#Cc1cccc(Nc2ncnc3c2C(=Cc2[nH]c(C)c(CCCN4CCOCC4)c2C)C(=O)N3)c1 [Formula 18] | 4.82 | 7.52
4 | Cc1cc(C)c(C=C2C(=O)Nc3ncnc(Nc4ccc(F)c(Cl)c4)c32)[nH]1 [Formula 9] | < 4.00 | 8.00
